Experimental data as given in US11945813B2, “5-substituted 4-amino-1H-benzo[c][1,2,6]thiadiazine 2,2-dioxides and formulations and uses thereof” (Firmenich Incorporated, priority 2018, dated 2024).

Target: T1, T1R2/T1R3 taste receptor (Homo sapiens, UniProt Q8TE23)
T1 sequence (Q8TE23 20-839): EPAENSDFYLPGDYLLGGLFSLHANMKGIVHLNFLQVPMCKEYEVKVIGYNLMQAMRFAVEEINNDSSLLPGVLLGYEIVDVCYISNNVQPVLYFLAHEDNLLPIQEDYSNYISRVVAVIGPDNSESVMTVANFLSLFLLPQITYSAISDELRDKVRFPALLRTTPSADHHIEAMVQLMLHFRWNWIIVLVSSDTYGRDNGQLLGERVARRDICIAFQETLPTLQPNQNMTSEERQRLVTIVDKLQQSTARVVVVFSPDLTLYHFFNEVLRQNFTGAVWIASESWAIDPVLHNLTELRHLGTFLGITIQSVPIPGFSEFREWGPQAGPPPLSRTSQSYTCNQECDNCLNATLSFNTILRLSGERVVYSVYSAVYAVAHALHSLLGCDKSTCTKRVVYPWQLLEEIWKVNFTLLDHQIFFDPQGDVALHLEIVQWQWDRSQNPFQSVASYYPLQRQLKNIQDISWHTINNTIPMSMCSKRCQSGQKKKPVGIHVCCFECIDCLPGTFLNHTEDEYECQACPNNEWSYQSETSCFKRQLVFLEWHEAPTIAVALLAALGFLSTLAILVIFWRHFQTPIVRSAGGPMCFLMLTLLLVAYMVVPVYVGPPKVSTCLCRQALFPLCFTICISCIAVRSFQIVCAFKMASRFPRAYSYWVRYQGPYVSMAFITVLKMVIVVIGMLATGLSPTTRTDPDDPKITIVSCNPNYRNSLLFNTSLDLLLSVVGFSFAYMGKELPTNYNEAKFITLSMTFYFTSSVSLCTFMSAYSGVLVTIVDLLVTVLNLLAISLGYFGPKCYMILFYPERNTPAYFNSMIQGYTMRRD
T1 sequence (Q7RTX0 21-852 partner): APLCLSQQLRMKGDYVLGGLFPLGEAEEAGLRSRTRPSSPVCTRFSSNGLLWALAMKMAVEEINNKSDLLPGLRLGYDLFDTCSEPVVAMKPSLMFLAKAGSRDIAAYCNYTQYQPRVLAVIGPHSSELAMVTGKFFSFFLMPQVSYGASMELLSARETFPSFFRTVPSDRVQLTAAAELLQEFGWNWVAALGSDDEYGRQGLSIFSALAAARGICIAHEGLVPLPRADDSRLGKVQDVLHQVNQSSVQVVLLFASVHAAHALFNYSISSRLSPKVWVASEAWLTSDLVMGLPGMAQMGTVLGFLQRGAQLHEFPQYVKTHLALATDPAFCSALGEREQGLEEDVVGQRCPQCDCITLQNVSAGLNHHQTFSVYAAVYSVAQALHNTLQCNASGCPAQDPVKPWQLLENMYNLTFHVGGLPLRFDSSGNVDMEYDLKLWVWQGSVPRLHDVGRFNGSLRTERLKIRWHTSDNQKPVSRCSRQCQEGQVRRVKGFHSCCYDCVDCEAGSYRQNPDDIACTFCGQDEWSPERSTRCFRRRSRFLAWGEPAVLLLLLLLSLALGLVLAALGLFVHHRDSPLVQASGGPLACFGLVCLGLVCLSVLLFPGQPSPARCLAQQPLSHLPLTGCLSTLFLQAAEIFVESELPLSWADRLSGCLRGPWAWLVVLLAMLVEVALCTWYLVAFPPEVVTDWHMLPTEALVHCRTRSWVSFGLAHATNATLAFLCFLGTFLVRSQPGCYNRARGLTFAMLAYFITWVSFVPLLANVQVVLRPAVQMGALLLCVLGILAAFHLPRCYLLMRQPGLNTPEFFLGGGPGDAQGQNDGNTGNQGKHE
Assay: Receptor-based assay: sweetener EC50 alone and with test compound (enhancement ratio)
Format: cell-based
Conditions: for Fructose Enhancement EC50 Ratio: sweetener fructose; for Sucralose Enhancement EC50 Ratio: sweetener sucralose; for Sucrose Enhancement EC50 Ratio: sweetener sucrose
Experimental: Potencies (EC50 values) for the sweeteners sucrose, sucralose, and fructose were measured against the T1R2/T1R3 taste receptor. EC50 was determined using the sweetener alone and in the presence of 3 μM, 10 μM, or 50 μM of test compound. EC50 ratios were calculated by the ratio of potency with and without the test compound. An “A” value indicates an enhancement ratio of greater than 20. A “B” value indicates an enhancement ratio from 10 to 20. A “C” value indicates an enhancement ratio greater than 1 and less than 10.

## NC1=NS(=O)(=O)Nc2cccc(OC[C@H]3CCCN(c4cccc(C(=O)NC5CC5)n4)C3)c21 [Compound 400, (S)-6-(3-(((4-amino-2,2-dioxido-1H-benzo[c][1,2,6]thiadiazin-5-yl)oxy)methyl)piperidin-1-yl)-N-cyclopropylpicolinamide]
10 μM test compound
  Fructose Enhancement EC50 Ratio: C (A “C” value indicates an enhancement ratio greater than 1 and less than 10)
  Sucralose Enhancement EC50 Ratio: A (An “A” value indicates an enhancement ratio of greater than 20)
  Sucrose Enhancement EC50 Ratio: C (A “C” value indicates an enhancement ratio greater than 1 and less than 10)
50 μM test compound
  Fructose Enhancement EC50 Ratio: C (A “C” value indicates an enhancement ratio greater than 1 and less than 10)
  Sucralose Enhancement EC50 Ratio: A (An “A” value indicates an enhancement ratio of greater than 20)
  Sucrose Enhancement EC50 Ratio: B (A “B” value indicates an enhancement ratio from 10 to 20)
3 μM test compound
  Sucrose Enhancement EC50 Ratio: C (A “C” value indicates an enhancement ratio greater than 1 and less than 10)

## CNC(=O)c1cccc(N2CCC[C@H](COc3cccc4c3C(N)=NS(=O)(=O)N4)C2)n1 [Compound 401]
10 μM test compound
  Sucralose Enhancement EC50 Ratio: A (An “A” value indicates an enhancement ratio of greater than 20)
  Sucrose Enhancement EC50 Ratio: B (A “B” value indicates an enhancement ratio from 10 to 20)
50 μM test compound
  Sucralose Enhancement EC50 Ratio: A (An “A” value indicates an enhancement ratio of greater than 20)
  Sucrose Enhancement EC50 Ratio: C (A “C” value indicates an enhancement ratio greater than 1 and less than 10)
3 μM test compound
  Sucrose Enhancement EC50 Ratio: C (A “C” value indicates an enhancement ratio greater than 1 and less than 10)

## CCNC(=O)c1cccc(N2CCC[C@H](COc3cccc4c3C(N)=NS(=O)(=O)N4)C2)n1 [Compound 402]
10 μM test compound
  Sucralose Enhancement EC50 Ratio: A (An “A” value indicates an enhancement ratio of greater than 20)
  Sucrose Enhancement EC50 Ratio: C (A “C” value indicates an enhancement ratio greater than 1 and less than 10)
50 μM test compound
  Sucralose Enhancement EC50 Ratio: A (An “A” value indicates an enhancement ratio of greater than 20)
  Sucrose Enhancement EC50 Ratio: C (A “C” value indicates an enhancement ratio greater than 1 and less than 10)
3 μM test compound
  Sucrose Enhancement EC50 Ratio: C (A “C” value indicates an enhancement ratio greater than 1 and less than 10)

## CCCNC(=O)c1cccc(N2CCC[C@H](COc3cccc4c3C(N)=NS(=O)(=O)N4)C2)n1 [Compound 403]
10 μM test compound
  Fructose Enhancement EC50 Ratio: C (A “C” value indicates an enhancement ratio greater than 1 and less than 10)
  Sucralose Enhancement EC50 Ratio: A (An “A” value indicates an enhancement ratio of greater than 20)
  Sucrose Enhancement EC50 Ratio: C (A “C” value indicates an enhancement ratio greater than 1 and less than 10)
50 μM test compound
  Sucralose Enhancement EC50 Ratio: A (An “A” value indicates an enhancement ratio of greater than 20)
  Sucrose Enhancement EC50 Ratio: C (A “C” value indicates an enhancement ratio greater than 1 and less than 10)
3 μM test compound
  Sucrose Enhancement EC50 Ratio: C (A “C” value indicates an enhancement ratio greater than 1 and less than 10)

## COCCNC(=O)c1cccc(N2CCC[C@H](COc3cccc4c3C(N)=NS(=O)(=O)N4)C2)n1 [Compound 405]
10 μM test compound
  Fructose Enhancement EC50 Ratio: C (A “C” value indicates an enhancement ratio greater than 1 and less than 10)
  Sucralose Enhancement EC50 Ratio: B (A “B” value indicates an enhancement ratio from 10 to 20)
  Sucrose Enhancement EC50 Ratio: C (A “C” value indicates an enhancement ratio greater than 1 and less than 10)
3 μM test compound
  Sucrose Enhancement EC50 Ratio: C (A “C” value indicates an enhancement ratio greater than 1 and less than 10)

## CN(C)CCNC(=O)c1cccc(N2CCC[C@H](COc3cccc4c3C(N)=NS(=O)(=O)N4)C2)n1 [Compound 406]
10 μM test compound
  Fructose Enhancement EC50 Ratio: C (A “C” value indicates an enhancement ratio greater than 1 and less than 10)
  Sucralose Enhancement EC50 Ratio: A (An “A” value indicates an enhancement ratio of greater than 20)
  Sucrose Enhancement EC50 Ratio: B (A “B” value indicates an enhancement ratio from 10 to 20)
50 μM test compound
  Fructose Enhancement EC50 Ratio: C (A “C” value indicates an enhancement ratio greater than 1 and less than 10)
  Sucrose Enhancement EC50 Ratio: B (A “B” value indicates an enhancement ratio from 10 to 20)
3 μM test compound
  Sucrose Enhancement EC50 Ratio: C (A “C” value indicates an enhancement ratio greater than 1 and less than 10)

## CC(C)NC(=O)c1cccc(N2CCC[C@H](COc3cccc4c3C(N)=NS(=O)(=O)N4)C2)n1 [Compound 407]
10 μM test compound
  Fructose Enhancement EC50 Ratio: C (A “C” value indicates an enhancement ratio greater than 1 and less than 10)
  Sucrose Enhancement EC50 Ratio: B (A “B” value indicates an enhancement ratio from 10 to 20)
50 μM test compound
  Fructose Enhancement EC50 Ratio: C (A “C” value indicates an enhancement ratio greater than 1 and less than 10)
  Sucrose Enhancement EC50 Ratio: C (A “C” value indicates an enhancement ratio greater than 1 and less than 10)

## NC1=NS(=O)(=O)Nc2cccc(OC[C@H]3CCCN(c4cccc(C(=O)NC5CCCC5)n4)C3)c21 [Compound 408]
50 μM test compound
  Fructose Enhancement EC50 Ratio: C (A “C” value indicates an enhancement ratio greater than 1 and less than 10)
  Sucralose Enhancement EC50 Ratio: A (An “A” value indicates an enhancement ratio of greater than 20)
  Sucrose Enhancement EC50 Ratio: B (A “B” value indicates an enhancement ratio from 10 to 20)
10 μM test compound
  Sucralose Enhancement EC50 Ratio: A (An “A” value indicates an enhancement ratio of greater than 20)
  Sucrose Enhancement EC50 Ratio: B (A “B” value indicates an enhancement ratio from 10 to 20)
3 μM test compound
  Sucrose Enhancement EC50 Ratio: C (A “C” value indicates an enhancement ratio greater than 1 and less than 10)

## NC1=NS(=O)(=O)Nc2cccc(OC[C@H]3CCCN(c4cccc(C(=O)NC5CCCCC5)n4)C3)c21 [Compound 409]
10 μM test compound
  Sucralose Enhancement EC50 Ratio: A (An “A” value indicates an enhancement ratio of greater than 20)
  Sucrose Enhancement EC50 Ratio: C (A “C” value indicates an enhancement ratio greater than 1 and less than 10)
50 μM test compound
  Sucralose Enhancement EC50 Ratio: A (An “A” value indicates an enhancement ratio of greater than 20)
  Sucrose Enhancement EC50 Ratio: B (A “B” value indicates an enhancement ratio from 10 to 20)
3 μM test compound
  Sucrose Enhancement EC50 Ratio: C (A “C” value indicates an enhancement ratio greater than 1 and less than 10)

## CN(C)C(=O)c1cccc(N2CCC[C@H](COc3cccc4c3C(N)=NS(=O)(=O)N4)C2)n1 [Compound 410]
50 μM test compound
  Fructose Enhancement EC50 Ratio: C (A “C” value indicates an enhancement ratio greater than 1 and less than 10)
  Sucralose Enhancement EC50 Ratio: A (An “A” value indicates an enhancement ratio of greater than 20)
  Sucrose Enhancement EC50 Ratio: B (A “B” value indicates an enhancement ratio from 10 to 20)
10 μM test compound
  Sucralose Enhancement EC50 Ratio: B (A “B” value indicates an enhancement ratio from 10 to 20)
  Sucrose Enhancement EC50 Ratio: B (A “B” value indicates an enhancement ratio from 10 to 20)
3 μM test compound
  Sucrose Enhancement EC50 Ratio: C (A “C” value indicates an enhancement ratio greater than 1 and less than 10)

## CCN(CC)C(=O)c1cccc(N2CCC[C@H](COc3cccc4c3C(N)=NS(=O)(=O)N4)C2)n1 [Compound 411]
10 μM test compound
  Sucralose Enhancement EC50 Ratio: B (A “B” value indicates an enhancement ratio from 10 to 20)
  Sucrose Enhancement EC50 Ratio: C (A “C” value indicates an enhancement ratio greater than 1 and less than 10)
3 μM test compound
  Sucrose Enhancement EC50 Ratio: C (A “C” value indicates an enhancement ratio greater than 1 and less than 10)
